Measurements from PMC4844176 (Xenobiotica; the fate of foreign compounds in biological …, 2015).
Several values for one entry are separate records, joined by “and”; a condition that tells them apart may be missing. Equal entries are not always repeated.

Assays:
[1] = test system: human liver microsomes (HLM); test: Inhibition of aprepitant glucuronidation by UGT specific inhibitors in HLM; type: in vitro ADME; conditions: for inhibition of aprepitant glucuronidation: aprepitant at 5 µM and at the Kms
UGT1A4 [2] = molecular target: T1, UGT1A4 (Homo sapiens, UniProt P22310)
T1 sequence (P22310 29-534): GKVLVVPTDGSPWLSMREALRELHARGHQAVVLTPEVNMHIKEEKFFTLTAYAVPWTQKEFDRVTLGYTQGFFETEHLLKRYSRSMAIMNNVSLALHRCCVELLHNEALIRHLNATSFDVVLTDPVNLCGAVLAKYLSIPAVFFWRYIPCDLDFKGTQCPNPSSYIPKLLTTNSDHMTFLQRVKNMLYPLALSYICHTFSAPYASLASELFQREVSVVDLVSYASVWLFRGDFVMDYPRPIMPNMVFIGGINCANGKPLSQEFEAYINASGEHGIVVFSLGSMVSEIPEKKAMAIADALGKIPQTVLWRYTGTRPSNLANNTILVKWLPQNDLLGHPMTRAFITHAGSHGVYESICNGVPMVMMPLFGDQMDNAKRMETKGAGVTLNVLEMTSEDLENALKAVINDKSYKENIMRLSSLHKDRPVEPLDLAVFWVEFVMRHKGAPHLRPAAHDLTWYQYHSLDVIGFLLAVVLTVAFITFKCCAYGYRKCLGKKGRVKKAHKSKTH

UGT1A4 [3] = molecular target: T1, UGT1A4; test: Inhibition of aprepitant glucuronidation by UGT specific inhibitors in UGT1A4; conditions: UGT1A4, aprepitant 5 µM, 200 µM hecogenin
UGT2B7 = molecular target: T2, UGT2B7 (Homo sapiens, UniProt P16662); conditions: ref Veal et al., 1995; Barbier et al., 2000; cited from earlier work
T2 sequence (P16662 24-529): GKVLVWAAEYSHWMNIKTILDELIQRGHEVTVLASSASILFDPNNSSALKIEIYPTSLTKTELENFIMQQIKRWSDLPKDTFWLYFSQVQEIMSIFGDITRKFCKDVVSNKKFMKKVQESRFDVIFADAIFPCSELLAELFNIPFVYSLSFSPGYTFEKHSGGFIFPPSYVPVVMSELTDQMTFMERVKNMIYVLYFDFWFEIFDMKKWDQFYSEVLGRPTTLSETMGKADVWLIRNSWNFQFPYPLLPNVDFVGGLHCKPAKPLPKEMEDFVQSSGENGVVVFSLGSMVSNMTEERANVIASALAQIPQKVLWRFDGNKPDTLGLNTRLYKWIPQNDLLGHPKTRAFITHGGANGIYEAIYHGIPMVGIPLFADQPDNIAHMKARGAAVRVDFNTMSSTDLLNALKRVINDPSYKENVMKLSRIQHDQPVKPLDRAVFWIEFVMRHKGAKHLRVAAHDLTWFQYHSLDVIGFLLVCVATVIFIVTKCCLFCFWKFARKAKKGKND

UGT1A3 [4] = molecular target: T3, UGT1A3 (Homo sapiens, UniProt P35503); test: in vitro; conditions: UGT1A3 Supersomes, pH 7.5, probe aprepitant […] µM (Km), AP-G formation
T3 sequence (P35503 29-534): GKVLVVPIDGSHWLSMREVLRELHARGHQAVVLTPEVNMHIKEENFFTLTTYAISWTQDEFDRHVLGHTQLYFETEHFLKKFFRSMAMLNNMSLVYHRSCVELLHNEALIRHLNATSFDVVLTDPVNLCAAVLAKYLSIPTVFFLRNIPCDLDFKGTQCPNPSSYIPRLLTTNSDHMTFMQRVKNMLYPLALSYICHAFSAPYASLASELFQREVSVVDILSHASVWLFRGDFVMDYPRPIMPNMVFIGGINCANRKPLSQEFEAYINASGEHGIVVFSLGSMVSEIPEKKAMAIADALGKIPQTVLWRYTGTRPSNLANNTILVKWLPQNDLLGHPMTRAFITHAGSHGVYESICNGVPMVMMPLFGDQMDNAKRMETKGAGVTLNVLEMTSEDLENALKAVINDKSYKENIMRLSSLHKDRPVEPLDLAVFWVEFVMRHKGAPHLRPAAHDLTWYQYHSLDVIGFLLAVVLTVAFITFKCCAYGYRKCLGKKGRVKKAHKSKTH

UGT1A3 [5] = molecular target: T3, UGT1A3; test: Inhibition of aprepitant glucuronidation by UGT specific inhibitors in UGT1A3; conditions: UGT1A3 Supersomes, pH 7.5, probe aprepitant 5 µM, AP-G formation
[6] = test system: human intestinal microsomes (HIM)
UGT1A8 = molecular target: T4, UGT1A8 (Homo sapiens, UniProt Q9HAW9); test: in vitro; conditions: UGT1A8 Supersomes, pH 7.5, probe aprepitant […] (Km), AP-G formation
T4 sequence (Q9HAW9 26-530): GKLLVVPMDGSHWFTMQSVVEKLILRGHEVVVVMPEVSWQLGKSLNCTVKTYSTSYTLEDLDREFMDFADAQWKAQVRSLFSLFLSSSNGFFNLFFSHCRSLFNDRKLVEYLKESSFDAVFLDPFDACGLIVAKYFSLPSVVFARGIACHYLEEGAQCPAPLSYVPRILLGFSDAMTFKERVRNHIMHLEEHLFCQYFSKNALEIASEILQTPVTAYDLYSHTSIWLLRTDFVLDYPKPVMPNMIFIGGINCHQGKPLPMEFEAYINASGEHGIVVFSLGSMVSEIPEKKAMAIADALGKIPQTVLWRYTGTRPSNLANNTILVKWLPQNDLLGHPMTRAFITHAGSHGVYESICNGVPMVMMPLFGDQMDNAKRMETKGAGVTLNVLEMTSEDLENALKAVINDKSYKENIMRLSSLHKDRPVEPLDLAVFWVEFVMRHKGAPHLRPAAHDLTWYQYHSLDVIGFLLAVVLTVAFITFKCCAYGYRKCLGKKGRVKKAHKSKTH

not read = substrate: C[C@@H](O[C@H]1OCCN(Cc2n[nH]c(=O)[nH]2)[C@H]1c1ccc(F)cc1)c1cc(C(F)(F)F)cc(C(F)(F)F)c1; test: not read; conditions: mean ± SE, pH 7.5, 37.0 °C
[7] = aprepitant 5 µM, 1000 µM sulfinpyrazone or 200 µM hecogenin

hecogenin
Percent inhibition of aprepitant glucuronidation [1, 7]: 100% | Percent inhibition of aprepitant glucuronidation ([1]; aprepitant […] (Km for UGT1A4), 200 µM hecogenin): 80.8% | inhibition of aprepitant glucuronidation [1]: high inhibition | inhibition (UGT1A4 [2]): 83.9% | Percent inhibition of aprepitant glucuronidation (UGT1A4 [3]): 100%

Cc1cn([C@H]2C[C@H](N=[N+]=[N-])[C@@H](CO)O2)c(=O)[nH]c1=O [AZT, 3’-azido-3’-deoxythymidine]
share of glucuronidation catalyzed by UGT2B7 (UGT2B7): 60–70%

O=C1C(CC[S+]([O-])c2ccccc2)C(=O)N(c2ccccc2)N1c1ccccc1 (stereo not shown) [sulfinpyrazone]
Percent inhibition of aprepitant glucuronidation [1, 7]: 22.2% | Percent inhibition of aprepitant glucuronidation ([1]; aprepitant […] µM (Km for UGT1A3), 1000 µM sulfinpyrazone): 22.1% | inhibition of aprepitant glucuronidation [1]: < 25% | inhibition at 60 min, 1000 µM (UGT1A3 [4]): 100% | inhibition at 60 min, 1000 µM (UGT1A3 [5]): 100%

O=C(O)Cc1ccccc1Nc1c(Cl)cccc1Cl [diclofenac]
inhibition [6]: 100% | inhibition at 60 min, 500 µM (UGT1A8): 66.7%

B1: UGT1A8 (Homo sapiens) (protein)
chain: T4 sequence (Q9HAW9 26-530)
K0.5 (not read; other: UGT1A8, Hill equation (S50)): 197.1 ± 28.2 µM and 197 ± 28 µM

B2: UGT1A3 (Homo sapiens) (protein)
chain: T3 sequence (P35503 29-534)
K0.5 (not read; other: UGT1A3, Michaelis-Menten): 69.4 ± 1.9 µM and 69 ± 2 µM

B3: UGT1A4 (Homo sapiens) (protein)
chain: T1 sequence (P22310 29-534)
K0.5 (not read; other: UGT1A4, Michaelis-Menten): 161.6 ± 15.6 µM and 162 ± 16 µM
